Measured values published in patent publication US9902713B2, “Neuroprotective compounds and use thereof” (BOARD OF REGENTS OF THE UNIVERSITY OF TEXAS SYSTEM, priority 2013, dated 2018).

How the values were obtained:
[1] = tested on: cerebral cortical neurons; conditions: previously reported; cited from earlier work
2B6 = 2B6 (Homo sapiens, UniProt P20813); assay: Cytochrome P450 inhibition; assay type: in vitro ADME
3A4 = 3A4 (Homo sapiens, UniProt P08684); assay: Cytochrome P450 inhibition; assay type: in vitro ADME
Sequence of 3A4 (P08684 whole entry): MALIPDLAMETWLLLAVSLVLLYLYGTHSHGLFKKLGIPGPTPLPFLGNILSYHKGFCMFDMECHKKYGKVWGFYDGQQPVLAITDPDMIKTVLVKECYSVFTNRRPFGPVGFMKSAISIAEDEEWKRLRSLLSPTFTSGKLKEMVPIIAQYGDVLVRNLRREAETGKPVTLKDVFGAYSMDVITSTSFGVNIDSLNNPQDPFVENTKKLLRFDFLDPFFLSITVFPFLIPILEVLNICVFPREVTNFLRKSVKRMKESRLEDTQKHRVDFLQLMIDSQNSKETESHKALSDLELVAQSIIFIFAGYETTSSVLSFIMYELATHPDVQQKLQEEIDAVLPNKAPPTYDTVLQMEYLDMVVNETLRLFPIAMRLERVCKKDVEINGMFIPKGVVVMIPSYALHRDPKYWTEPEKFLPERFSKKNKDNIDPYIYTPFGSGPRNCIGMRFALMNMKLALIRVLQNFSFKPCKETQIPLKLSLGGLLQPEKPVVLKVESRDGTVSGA

CYP2C19 = CYP2C19 (Homo sapiens, UniProt P33261); assay: Cytochrome P450 inhibition
Sequence of CYP2C19 (P33261 whole entry): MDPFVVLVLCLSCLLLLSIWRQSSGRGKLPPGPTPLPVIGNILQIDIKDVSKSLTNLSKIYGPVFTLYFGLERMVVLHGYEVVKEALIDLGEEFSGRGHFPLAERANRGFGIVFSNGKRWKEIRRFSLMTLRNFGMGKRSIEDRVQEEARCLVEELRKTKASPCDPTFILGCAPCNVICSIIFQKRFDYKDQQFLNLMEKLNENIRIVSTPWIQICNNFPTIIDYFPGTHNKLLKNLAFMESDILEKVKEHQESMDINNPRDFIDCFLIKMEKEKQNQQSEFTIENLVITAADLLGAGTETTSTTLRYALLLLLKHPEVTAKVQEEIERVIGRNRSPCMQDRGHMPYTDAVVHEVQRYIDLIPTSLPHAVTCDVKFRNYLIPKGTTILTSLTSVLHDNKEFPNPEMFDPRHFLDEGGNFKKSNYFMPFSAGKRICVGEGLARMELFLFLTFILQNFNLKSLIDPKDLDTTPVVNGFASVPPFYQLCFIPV

blast-injured mice = assay: Barnes maze, treatment begun 10 months after blast injury; assay type: in vivo
Description: After 8 weeks of treatment, mice were completely withdrawn from treatment with vehicle or compound.

[2] = tested on: hippocampal CA1 neurons, myelin and mitochondria; assay: Toluidine blue staining and TEM of hippocampus after blast-injury; assay type: in vivo, mice
Description: To further examine hippocampal structural pathology, we turned to ultrathin ([…]) section histology using toluidine blue staining, as well as transmission electron microscopy (TEM) (FIG. 31). […] In blast-injured animals, however, we observed accumulation of chromatolytic and pyknotic neurons in the CA1 stratum pyramidale, accompanied by decreased dendritic extensions in the stratum radiatum, indicating general ongoing pathologic processes associated with neurodegeneration and consistent with our electrophysiologic data in FIG. 17.
The stratum radiatum is where CA3 Schaeffer collateral axons synapse with dendrites of CA1 pyramidal cells. This was the circuit we investigated electrophysiologically (FIG. 17), and we next turned to TEM to further characterize blast-injury induced axonal degeneration. […] These axons contained intact and healthy-appearing mitochondria.
Toluidine blue staining and transmission electron microscopy (TEM). Mice were transcardially perfused with Karnovsky's fixative solution (2% formaldehyde, 2.5% glutaraldehyde, 0.2M sodium cacodylate buffer, 1 mM CaCl2, 2 mM MgCl2, and 42.8 mM NaCl, pH 7.4) two weeks after either sham- or blast-Injury and with or without specified compound treatment. Harvested brains were incubated in Karnovsky's overnight at 4° C. Whole brains were cut in the horizontal plane (100 μm) using a vibratome (Leica 1500). Sections that contained the hippocampus were selected, washed with 0.1M sodium cacodylate buffer and then post fixed with 1% osmium fixative for 1 hr. After washing in 0.1M sodium cacodylate buffer, sections were dehydrated in a series of ethanol (50%, 75%, 95% and 100% ethanol) followed by embedding in EPON resin overnight at 65° C. For toluidine blue staining, semithin sections (1 μm) were cut with an ultramicrotome (Leica UC6) and stained with toluidine blue. Pictures were taken using an upright microscope (Zeiss Axio Imager.M2) with a color camera (AxioCam ICc5). For TEM, ultrathin sections (60 nm) adjacent to the semithin sections were cut with an ultramicrotome, loaded onto a Formvar 200-mesh Ni grid, and counterstained with uranyl acetate and lead citrate. Specimens were examined using a JEOL JEM 1230 electron microscope with a Gatan UltraScan 1000 2 k×2 k CCD camera. See also FIG. 31.

2C9 = 2C9 (Homo sapiens, UniProt P11712); assay: Cytochrome P450 inhibition; assay type: in vitro ADME
Sequence of 2C9 (P11712 whole entry): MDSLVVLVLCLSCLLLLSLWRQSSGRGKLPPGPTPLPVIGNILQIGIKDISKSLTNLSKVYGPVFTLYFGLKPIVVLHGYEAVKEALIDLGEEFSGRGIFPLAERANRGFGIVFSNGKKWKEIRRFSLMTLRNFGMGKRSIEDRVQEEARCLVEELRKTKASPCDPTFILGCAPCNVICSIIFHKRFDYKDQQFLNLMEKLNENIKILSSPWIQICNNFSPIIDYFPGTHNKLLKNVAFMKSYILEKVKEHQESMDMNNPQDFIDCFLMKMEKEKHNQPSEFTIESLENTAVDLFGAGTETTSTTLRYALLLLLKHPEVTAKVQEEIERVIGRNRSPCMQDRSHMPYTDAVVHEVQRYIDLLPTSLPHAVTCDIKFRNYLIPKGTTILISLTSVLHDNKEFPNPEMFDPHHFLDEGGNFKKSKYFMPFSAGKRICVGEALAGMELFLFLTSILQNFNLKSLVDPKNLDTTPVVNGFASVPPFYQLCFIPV

[3] = tested on: cultured cortical neurons; assay: 6-OHDA toxicity in cultured neurons (MTT); assay type: cell-based; conditions: 10 μM compound
Description: (§1) A rat model of Parkinson's disease, incuded by 6-hydroxydopamine (6-OHDA) was used to test various compounds As shown in FIGS. 33A-33D, P7C3-S243 protects cultured hippocampal and cortical neurons from 6-OHDA toxicity. […] (FIG. 33B) The average number of hippocampal neurons in the 10 μM P7C3-S243 treatment group was not different from the average number of hippocampal neurons treated with medium alone or with DMSO+Ascorbic acid (one-way ANOVA). […] The average number of cortical neurons in the 10 μM P7C3-S243 treatment group was not different from the average number of cortical neurons treated with medium alone or with DMSO+Ascorbic acid (one-way ANOVA). Experiments were performed two independent times, with 8-12 replicates of each sample both times.

[4] = tested on: cultured hippocampal neurons; assay: 6-OHDA toxicity in cultured neurons (MTT); assay type: cell-based; conditions: 10 μM compound
Description: as §1

[5] = tested on: cultured cortical neurons; assay: MPP+ toxicity in cultured neurons (MTT); assay type: cell-based; conditions: 10 μM compound, 10 μM MPP+, 24 hrs
Description: FIGS. 35A-35B show P7C3-S243 and P7C3-A20 protect cultured hippocampal and cortical neurons from MPP^+ toxicity. […] Experiments were performed 2 independent times with 8-12 replicates of each sample both times.

blood-brain barrier = assay: Blood brain barrier permeability assay (Evans blue); assay type: in vivo; conditions: sham-injured mice, 3 days of daily treatment
Description: On the basis of the promising results seen with administration of P7C3-A20 or P7C3-S243 immediately after injury, we sought to determine whether P7C3-S243 could offer protective efficacy when treatment was initiated later. Because TBI can disrupt the blood-brain barrier (BBB), we first examined BBB integrity over time by means of the Evans blue assay. Evans blue is an azo dye with tight affinity for albumin, such that in serum virtually all Evans blue is albumin-bound. Normally, serum albumin cannot cross the BBB. However, when the BBB is compromised, albumin and its bound Evans blue can enter the CNS. The magnitude of Evans blue accumulation in the brain can then be spectrophotometrically determined in order to monitor disruption of the BBB (Uyama et al., 1988; Hawkins and Egleton, 2006). With this technique, we observed significant disruption of the BBB 6 hours after blast-injury, with integrity of the BBB recovering to normal 18 hours later (FIG. 21B).
Blood brain barrier (BBB) permeability assay. […] To quantify the extravasation of albumin-bound EBD in each brain, tissue was weighed and incubated for 30 minutes at room temperature in 50% Tricholoracetic acid (TCA) in PBS at a 3:1 μl/mg ratio. […] Fluorescence was measured using a SpectraMax M2^e (Molecular Devices) in 100 μl of samples plated on a 96-well plate at excitation wavelength of 620 nm and an emission wavelength of 680 nm.

[6] = blast-injured, oral 0.3 mg/kg/day

Sequence of 2B6 (P20813 whole entry): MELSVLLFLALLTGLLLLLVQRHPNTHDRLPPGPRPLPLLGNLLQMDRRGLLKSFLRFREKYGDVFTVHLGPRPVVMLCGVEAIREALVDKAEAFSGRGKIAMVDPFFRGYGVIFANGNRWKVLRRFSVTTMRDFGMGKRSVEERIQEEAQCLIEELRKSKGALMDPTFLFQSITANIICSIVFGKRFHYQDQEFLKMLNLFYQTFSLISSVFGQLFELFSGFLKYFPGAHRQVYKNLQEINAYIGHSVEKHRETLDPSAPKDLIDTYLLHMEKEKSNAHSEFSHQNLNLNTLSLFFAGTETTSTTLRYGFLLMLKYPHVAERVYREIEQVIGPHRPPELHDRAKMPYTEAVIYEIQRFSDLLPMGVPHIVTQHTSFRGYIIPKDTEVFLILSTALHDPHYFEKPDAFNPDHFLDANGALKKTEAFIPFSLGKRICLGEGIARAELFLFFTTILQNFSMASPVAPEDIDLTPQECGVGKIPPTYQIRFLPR

## COc1cccc(NCC(F)Cn2c3ccc(Br)cc3c3cc(Br)ccc32)c1 (stereo not drawn) [P7C3-A20, N-(3-(3,6-dibromo-9H-carbazol-9-yl)-2-fluoropropyl)-3-methoxyaniline]
[1]
  protection of cerebral cortical neurons: protect rat cerebral cortical neurons

## COc1cccc(NCC(F)Cn2c3ccc(Br)cc3c3cc(Br)ccc32)n1 (single isomer, unassigned; (-)) [(−)-P7C3-S243, (−)-N-(3-(3,6-dibromo-9H-carbazol-9-yl)-2-fluoropropyl)-6-methoxypyridin-2-amine]
2B6
  sensitivity of cytochrome P450: insensitive
3A4
  sensitivity of cytochrome P450: insensitive
CYP2C19
  IC50: 1900 nM
blast-injured mice; 3 mg/kg/day begun 10 months after injury, after 4 and 8 weeks
  time spent in the escape area: sustained improvement in cognitive function
blast-injured mice; after 8 weeks of treatment, then withdrawn
  cognition relative to vehicle group after withdrawal: sustained improvement in cognition
[2]; [6]
  CA1 histology (toluidine blue): these same pathologic features were present
  axons and neuronal mitochondria (TEM): degenerating axons with characteristic unraveling of the myelin sheath
[2]; blast-injured, oral 3 mg/kg/d
  axons and neuronal mitochondria (TEM): partial resolution of pathological signs
[2]; blast-injured, oral 3 mg/kg/day
  CA1 histology (toluidine blue): partially preserve dendritic extension
[2]; blast-injured, oral 30 mg/kg/d
  CA1 histology (toluidine blue): fully preserved all structural aspects
  axons and neuronal mitochondria (TEM): full protection
[2]; sham-injured, oral 30 mg/kg/d
  CA1 histology (toluidine blue): did not change
[2]; sham-injury, oral 30 mg/kg/d
  axons and neuronal mitochondria (TEM): normally myelinated axons
2C9
  sensitivity of cytochrome P450: insensitive

## COc1cccc(NCC(F)Cn2c3ccc(Br)cc3c3cc(Br)ccc32)n1 (racemic) [P7C3-S243, N-(3-(3,6-dibromo-9H-carbazol-9-yl)-2-fluoropropyl)-6-methoxypyridin-2-amine]
[3]
  average number of neurons vs medium or DMSO+Ascorbic acid: not different
[3]; 50 μM and 75 μM 6-OHDA
  protection (MTT): significant protection
[4]
  average number of neurons vs medium or DMSO+Ascorbic acid: not different
[4]; 50 μM 6-OHDA, 24 hrs
  protection (MTT): significant protection
[5]
  protection (MTT): significant protection
blood-brain barrier
  BBB integrity: did not compromise BBB integrity
